Assay results from patent US20030092637A1, “Novel compounds” (priority 2000, published 2003).

System: transformed human vascular endothelial cells (ECV cells)
Test: Cellular growth assay (crystal violet), ECV cells
Type: cell-based
Protocol: Human embryonic lung fibroblasts (HFL-1 cells) and transformed endothelial cells (ECV cells) were obtained. Monolayer cultures were maintained on plastic in Eagle's MEM (Life Technologies, Ltd, Renfrewshire, UK). The medium was supplemented with 10% FCS (In Vitro AB, Stockholm, Sweden), 2 mM L-glutamine (ICN Biochemicals), penicillin (100 units/ml) and streptomycin (100 μg/ml) Cells were regularly checked for mycoplasma using GEN-PROBE Rapid detection system (Skafte & Claesson, Mölndal, Sweden).
In brief, cells were harvested by trypsinisation and seeded into 96-well microculture plates at 3000-5000 cells/well in Ham's F-12 medium (Sigma) supplemented with insulin (10 ng/ml), transferrin (25 ng/ml) and 10% FCS. After 4 h of plating, the cells were serum-starved for 24 h. […] Controls without growth factor and controls with different concentrations of DMSO were included. After 72, 96 and 120 h of growth, cells were fixed in glutaraldehyde, and cell nuclei were stained with crystal violet (Merck, Darmstadt, Germany). After washing and cell lysis for 24 h in 1% Triton X-100, the amount of bound dye was measured at 595 nm in a microplate photometer (Titertek multiscan). Results were corrected for DMSO effects.

## Oc1ccc2cc(O[C@@H]3OC[C@@H](O)[C@H](O)[C@H]3O)ccc2c1 [Xyl-2-Nap-6-OH, 6-hydroxy-2-naphthalenyl-β-D-xylopyranoside]
0.05 mM Xyl-2-Nap-6-OH, untreated cells as reference
  inhibition of growth of ECV cells: 9%
Xyl-2-Nap-6-OH alone (concentration not restated; 0.2 mM in the compared combination)
  inhibition of growth of ECV cells: 31%

## Cc1ccc(C(=O)Nc2ccc(S(=O)(=O)O)c3cc(S(=O)(=O)O)cc(S(=O)(=O)O)c23)cc1NC(=O)c1cccc(NC(=O)Nc2cccc(C(=O)Nc3cc(C(=O)Nc4ccc(S(=O)(=O)O)c5cc(S(=O)(=O)O)cc(S(=O)(=O)O)c45)ccc3C)c2)c1 [suramin]
Homo sapiens, Endothelial cell, 0.2 mM suramin, untreated cells as reference
  inhibition at 200 µM: 20%

## NCCC[C@](N)(C(=O)O)C(F)F [DFMO, α-difluoromethylornithine]
Homo sapiens, Endothelial cell, 5 mM DFMO only, cells dependent on 1 μM spermin
  inhibition at 5000 µM: 5%
